Laboratory results published in US12240859B2, “Turbinmicin compounds, compositions and uses thereof” (Wisconsin Alumni Research Foundation, priority 2019, dated 2025).

Experiments:
[1] = system: C. auris B11211; assay: Neutropenic murine disseminated candidiasis model, C. auris B11211; assay type: in vivo, Candida auris; settings: mice
Text: (§1) Animals. Six-week-old ICR Swiss specific-pathogen-free female mice weighing 23 to 27 g were used for all studies. Animals were maintained in accordance with the American Association for Accreditation of Laboratory Care criteria. Animal studies were approved by the University of Wisconsin Animal Research Committee.
C. auris B11211 and C. albicans K1 Infection model. A neutropenic, murine, disseminated candidiasis model was used for the treatment studies. […]
C auris B11211 was subcultured on SDA 24 h prior to infection. […] Fungal counts of the inoculum determined by viable counts of C. auris on SDA were 6.25±0.03 log10 CFU ml^−1, respectively. […] Results were expressed as the mean number of CFU per kidney for three mice. […]
(§2) Disseminated infection with C. auris B11211 infection was produced by injection of 0.1 ml of the inoculum via the lateral tail vein 2 h prior to the start of antifungal therapy. […] The results are expressed as the mean and standard deviation of the log10 CFU/kidney from three mice. […]
(§3) Results. A multi-dose experiment with C. auris B11211 infection murine model was evaluated, and four doses (1, 2, 4, and 8 mg/kg) of turbinmicin were administered to mice every six hours over a 24 h period; turbinmicin was administered by intraperitoneal route.

[2] = system: C. albicans K1; assay: Neutropenic murine disseminated candidiasis model, C. albicans K1; assay type: in vivo, Candida albicans; settings: mice
Text: as §1
C. auris B11211 and C. albicans K1 Infection model. A neutropenic, murine, disseminated candidiasis model was used for the treatment studies. Mice were rendered neutropenic (neutrophils, <100/mm^3) by injecting them with cyclophosphamide (Mead Johnson Pharmaceuticals, Evansville, IN) subcutaneously 4 days (150 mg/kg) and 1 day (100 mg/kg) before infection, and 2 days after infection (100 mg/kg). Previous studies have shown neutropenia (<100 mm^3) in this model for the 96-h study period.
as §2, §3

## C/C=C/C=C/C=C/C(=O)OC1C=CCC2C(=O)c3c(O)c4c5c(c3OC12)OCOC5CC1C(=O)c2cc(C)[nH]c(=O)c2C(=O)C41O (stereo not shown) [Turbinmicin, turbinmicin]
[1]; multi-dose 1, 2, 4 and 8 mg/kg intraperitoneal every six hours over 24 h, at 24 h, dose-dependent
  CFU/kidney reduction: > 3 log 10 CFU/kidney
[1]; single intraperitoneal dose 8, 16, 32, 64 mg/kg, 6 h, data not shown
  antifungal effect, single dose: failed to reveal a significant antifungal effect
[2]; multi-dose 1, 2, 4 and 8 mg/kg intraperitoneal over 24 hours
  CFU/kidney reduction: > 1 log 10 CFU/kidney
[2]; single intraperitoneal dose 16, 32, 48 and 64 mg/kg, 6 h
  in vivo efficacy, single dose: showed in vivo efficacy
